From the NIST ThermoML archive (doi:10.1021/je100765j)
± gives the expanded uncertainty stated by the source.

Test: xn = mol fraction of the nth substance listed
Settings: 101 kPa, Liquid; for speed of sound: Sing-around technique in a fixed-path interferometer

CC(C)CCl [1-chloro-2-methylpropane] + CC(C)OC(C)C
Settings | mass density [kg/m3] | speed of sound [m/s]
283.15 K, x1 = 0.0549 | 740.509 ± 0.91 | 1069.1 ± 1.1
283.15 K, x1 = 0.091 | 745.071 ± 0.9 | 1071.7 ± 1.1
283.15 K, x1 = 0.1977 | 758.96 ± 0.87 | 1079.6 ± 1.1
283.15 K, x1 = 0.2934 | 772.077 ± 0.84 | 1087 ± 1.1
283.15 K, x1 = 0.3911 | 785.941 ± 0.81 | 1094.4 ± 1.2
283.15 K, x1 = 0.5137 | 804.21 ± 0.78 | 1103.7 ± 1.2
283.15 K, x1 = 0.6034 | 818.258 ± 0.75 | 1110.5 ± 1.2
283.15 K, x1 = 0.6769 | 830.206 ± 0.72 | 1116.2 ± 1.2
283.15 K, x1 = 0.8059 | 852.473 ± 0.68 | 1126.3 ± 1.2
283.15 K, x1 = 0.9111 | 871.773 ± 0.64 | 1134.7 ± 1.2
283.15 K, x1 = 0.9646 | 881.981 ± 0.62 | 1139 ± 1.2
288.15 K, x1 = 0.0549 | 735.346 ± 0.92 | 1046.8 ± 1.1
288.15 K, x1 = 0.091 | 739.888 ± 0.91 | 1049.4 ± 1.1
288.15 K, x1 = 0.1977 | 753.737 ± 0.88 | 1057.5 ± 1.1
288.15 K, x1 = 0.2934 | 766.807 ± 0.85 | 1064.8 ± 1.1
288.15 K, x1 = 0.3911 | 780.617 ± 0.82 | 1072.3 ± 1.1
288.15 K, x1 = 0.5137 | 798.831 ± 0.79 | 1081.8 ± 1.1
288.15 K, x1 = 0.6034 | 812.821 ± 0.76 | 1088.7 ± 1.1
288.15 K, x1 = 0.6769 | 824.734 ± 0.73 | 1094.5 ± 1.2
288.15 K, x1 = 0.8059 | 846.936 ± 0.69 | 1104.9 ± 1.2
288.15 K, x1 = 0.9111 | 866.179 ± 0.65 | 1113.5 ± 1.2
288.15 K, x1 = 0.9646 | 876.368 ± 0.63 | 1117.9 ± 1.2
293.15 K, x1 = 0.0549 | 730.142 ± 0.93 | 1024.4 ± 1.1
293.15 K, x1 = 0.091 | 734.678 ± 0.92 | 1027 ± 1.1
293.15 K, x1 = 0.1977 | 748.467 ± 0.89 | 1035.1 ± 1.1
293.15 K, x1 = 0.2934 | 761.481 ± 0.86 | 1042.6 ± 1.1
293.15 K, x1 = 0.3911 | 775.245 ± 0.83 | 1050.3 ± 1.1
293.15 K, x1 = 0.5137 | 793.406 ± 0.8 | 1059.9 ± 1.1
293.15 K, x1 = 0.6034 | 807.35 ± 0.77 | 1066.9 ± 1.1
293.15 K, x1 = 0.6769 | 819.228 ± 0.75 | 1072.8 ± 1.1
293.15 K, x1 = 0.8059 | 841.356 ± 0.7 | 1083.4 ± 1.1
293.15 K, x1 = 0.9111 | 860.549 ± 0.66 | 1092.2 ± 1.2
293.15 K, x1 = 0.9646 | 870.717 ± 0.64 | 1096.8 ± 1.2
298.15 K, x1 = 0.0549 | 724.887 ± 0.94 | 1002.1 ± 1.1
298.15 K, x1 = 0.091 | 729.395 ± 0.93 | 1004.7 ± 1.1
298.15 K, x1 = 0.1977 | 743.114 ± 0.9 | 1013 ± 1.1
298.15 K, x1 = 0.2934 | 756.06 ± 0.87 | 1020.5 ± 1.1
298.15 K, x1 = 0.3911 | 769.763 ± 0.84 | 1028.2 ± 1.1
298.15 K, x1 = 0.5137 | 787.825 ± 0.81 | 1038 ± 1.1
298.15 K, x1 = 0.6034 | 801.699 ± 0.78 | 1045.2 ± 1.1
298.15 K, x1 = 0.6769 | 813.519 ± 0.76 | 1051.2 ± 1.1
298.15 K, x1 = 0.8059 | 835.53 ± 0.71 | 1062 ± 1.1
298.15 K, x1 = 0.9111 | 854.603 ± 0.68 | 1071 ± 1.1
298.15 K, x1 = 0.9646 | 864.749 ± 0.66 | 1075.6 ± 1.1
303.15 K, x1 = 0.0549 | 719.603 ± 0.95 | 979.86 ± 1.1
303.15 K, x1 = 0.091 | 724.11 ± 0.94 | 982.53 ± 1.1
303.15 K, x1 = 0.1977 | 737.798 ± 0.91 | 990.87 ± 1.1
303.15 K, x1 = 0.2934 | 750.738 ± 0.88 | 998.49 ± 1.1
303.15 K, x1 = 0.3911 | 764.421 ± 0.86 | 1006.3 ± 1.1
303.15 K, x1 = 0.5137 | 782.446 ± 0.82 | 1016.2 ± 1.1
303.15 K, x1 = 0.6034 | 796.305 ± 0.79 | 1023.5 ± 1.1
303.15 K, x1 = 0.6769 | 808.11 ± 0.77 | 1029.7 ± 1.1
303.15 K, x1 = 0.8059 | 830.111 ± 0.72 | 1040.8 ± 1.1
303.15 K, x1 = 0.9111 | 849.196 ± 0.69 | 1050 ± 1.1
303.15 K, x1 = 0.9646 | 859.307 ± 0.67 | 1054.8 ± 1.1
308.15 K, x1 = 0.0549 | 714.28 ± 0.96 | 957.82 ± 1.1
308.15 K, x1 = 0.091 | 718.759 ± 0.95 | 960.52 ± 1.1
308.15 K, x1 = 0.1977 | 732.397 ± 0.92 | 968.88 ± 1.1
308.15 K, x1 = 0.2934 | 745.3 ± 0.9 | 976.54 ± 1.1
308.15 K, x1 = 0.3911 | 758.935 ± 0.87 | 984.48 ± 1.1
308.15 K, x1 = 0.5137 | 776.901 ± 0.83 | 994.58 ± 1.1
308.15 K, x1 = 0.6034 | 790.719 ± 0.8 | 1002 ± 1.1
308.15 K, x1 = 0.6769 | 802.492 ± 0.78 | 1008.2 ± 1.1
308.15 K, x1 = 0.8059 | 824.422 ± 0.74 | 1019.6 ± 1.1
308.15 K, x1 = 0.9111 | 843.468 ± 0.7 | 1029 ± 1.1
308.15 K, x1 = 0.9646 | 853.542 ± 0.68 | 1033.8 ± 1.1
313.15 K, x1 = 0.0549 | 708.887 ± 0.97 | 935.95 ± 1.1
313.15 K, x1 = 0.091 | 713.334 ± 0.96 | 938.67 ± 1.1
313.15 K, x1 = 0.1977 | 726.882 ± 0.93 | 947.16 ± 1.1
313.15 K, x1 = 0.2934 | 739.693 ± 0.91 | 954.94 ± 1.1
313.15 K, x1 = 0.3911 | 753.227 ± 0.88 | 963 ± 1.1
313.15 K, x1 = 0.5137 | 771.077 ± 0.84 | 973.17 ± 1.1
313.15 K, x1 = 0.6034 | 784.802 ± 0.81 | 980.73 ± 1.1
313.15 K, x1 = 0.6769 | 796.487 ± 0.79 | 987.04 ± 1.1
313.15 K, x1 = 0.8059 | 818.264 ± 0.75 | 998.57 ± 1.1
313.15 K, x1 = 0.9111 | 837.168 ± 0.71 | 1008.1 ± 1.1
313.15 K, x1 = 0.9646 | 847.176 ± 0.69 | 1013 ± 1.1
